Laboratory results taken from the supplement of paper PMC10307832.

What was measured:
Test in all cases: relative viability (nuclei count vs DMSO), 5 days (fraction); higher = more cells survive
[1] = compound: Cc1ccc2nc(NCCN)c3ncc(C)n3c2c1 + CC(C)C[C@H](NC(=O)[C@H](Cc1ccccc1)NC(=O)c1cnccn1)B(O)O [Bortezomib] (partner 0.002 µM)
Procedure, shortened: (§1)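 Lung cancer cell lines in 1536-well plates were dosed by pin tool the day after seeding, either with one drug alone or with a fixed anchor-drug dose plus five library-drug doses (not always all listed) in √10 steps. After 5 days, cells were fixed and their nuclei stained in one step (final 0.05% Triton X-100, 1% formaldehyde, 1 ug/ml Hoechst), then counted on 4× images. Relative viability is the nuclei count in treated wells divided by that in vehicle wells. Values are medians of duplicate plates.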

Salubrinal + Phenformin = compound: O=C(/C=C/c1ccccc1)NC(NC(=S)Nc1cccc2cccnc12)C(Cl)(Cl)Cl [Salubrinal] + N=C(N)NC(=N)NCCc1ccccc1 [Phenformin] (partner 250 µM)
Procedure, shortened: as §1

[2] = compound: Cc1ccc2nc(NCCN)c3ncc(C)n3c2c1 + CC1(C)CCC(c2ccc(Cl)cc2)=C(CN2CCN(c3ccc(C(=O)NS(=O)(=O)c4ccc(N[C@H](CCN5CCOCC5)CSc5ccccc5)c(S(=O)(=O)C(F)(F)F)c4)cc3)CC2)C1 [Navitoclax] (partner 0.5 µM)
Procedure, shortened: as §1

[3] = compound: Cc1ccc2nc(NCCN)c3ncc(C)n3c2c1 + Nc1nc2[nH]cc(CCc3ccc(C(=O)N[C@@H](CCC(=O)O)C(=O)O)cc3)c2c(=O)[nH]1 [Pemetrexed] (partner 0.2 µM)
Procedure, shortened: as §1

Cell Line	relative viability ([1]; first compound 0.04 µM)	relative viability ([1]; first compound 0.1265 µM)	relative viability ([1]; first compound 0.4 µM)	relative viability ([1]; first compound 1.265 µM)	relative viability ([1]; first compound 4 µM)	relative viability (Salubrinal + Phenformin; first compound 0.08 µM)	relative viability (Salubrinal + Phenformin; first compound 0.253 µM)	relative viability (Salubrinal + Phenformin; first compound 0.8 µM)	relative viability (Salubrinal + Phenformin; first compound 2.53 µM)	relative viability (Salubrinal + Phenformin; first compound 8 µM)	relative viability ([2]; first compound 0.04 µM)	relative viability ([2]; first compound 0.1265 µM)	relative viability ([2]; first compound 0.4 µM)	relative viability ([2]; first compound 1.265 µM)	relative viability ([2]; first compound 4 µM)	relative viability ([3]; first compound 0.04 µM)	relative viability ([3]; first compound 0.1265 µM)	relative viability ([3]; first compound 0.4 µM)	relative viability ([3]; first compound 1.265 µM)	relative viability ([3]; first compound 4 µM)
NCI-H460	1.05	1.02	1.08	1.08	1.01	0.706	0.32	0.629	0.515	0.49	1.27	1.08	1.1	1.22	1.06	0.0612	0.0659	0.065	0.0654	0.0753
NCI-H520	0.656	0.544	0.464	0.568	0.36	0.56	0.556	0.831	0.646	0.54	1.19	1.09	1.12	1.1	0.953	0.655	0.62	0.651	0.687	0.574
NCI-H596	1.01	0.937	0.978	0.976	0.971	0.98	0.703	0.68	0.757	0.704	0.945	0.896	0.916	0.678	1.11	0.484	0.447	0.506	0.515	0.49
NCI-H647	0.943	0.783	0.999	0.864	0.707	0.607	0.293	0.885	0.595	0.452	1.08	1.06	1.17	0.804	0.908	0.179	0.158	0.243	0.221	0.243
NCI-H838	0.878	0.9	0.615	0.631	0.739	0.657	0.379	0.695	0.602	0.622	1.23	1.05	1.16	1.15	1.12	0.277	0.247	0.252	0.302	0.419
NCI-H1355	1.25	1.19	1.02	1.14	1.06	0.424	0.426	0.475	0.456	0.44	0.909	0.942	0.924	0.9	0.806	1.05	1.16	0.987	1.03	0.971
NCI-H1437	0.628	0.467	0.474	0.539	0.557	0.314	0.251	0.343	0.283	0.306	1.08	1.03	1.12	1.07	0.992	0.304	0.312	0.332	0.296	0.35
NCI-H1650	0.203	0.19	0.206	0.182	0.202	0.497	0.462	0.423	0.423	0.422	1.3	1	1.12	1.25	0.934	0.352	0.386	0.349	0.376	0.332
